This is an account of results in publication PMC6751662, “Pharmacological and functional similarities of the human neuropeptide Y system in C. elegans challenges phylogenetic views on the FLP/NPR system” (Cell Communication and Signaling : CCS, 2019).

What all share (format): cell-based
The target of one assay is T1, Y4R (Homo sapiens, UniProt P50391).
T1 construct: expressed in transfected cells; host or cells: HEK293, transient
Kind of assay: IP accumulation assay, chimeric GαΔ6qi4myr, Y4R. To be noted: chimeric GαΔ6qi4myr co-transfected, transiently transfected HEK293 cells, mean of at least three independent experiments. The protocol:
(§1) For measuring IP accumulation, HEK293 cells grown to 70–80% confluency in 6-well plates were transiently co-transfected using Metafectene Pro (2.5 μl/μg DNA; Biontex) with plasmids containing receptor and/or mock (empty pcDNA3.1) (for endogenous Gq-coupling) using 4 μg total DNA in a ratio of 3:1 following the manufacturer’s instructions. For testing Gα16- and GαΔ6qi4myr-coupling, plasmids encoding the corresponding Gα protein were co-transfected instead of mock. Gα16 is naturally promiscuous and stimulates the phospholipase C (PLC) pathway leading to IP production, while the exchange of the C-terminal four amino acids of Gαq for the corresponding residues of Gαi1 in the chimeric GαΔ6qi4myr confers the ability to couple to Gi/o protein-preferring receptors but still stimulate PLC, thus specifically redirecting downstream cellular signaling. 16 h post transfection, the cells were seeded into white 384-well plates at a density of 20,000 cells/well. Media was removed 24 h later and the cells were incubated with the indicated concentration of peptides for 1 h in HBSS + 20 mM LiCl. IP accumulation was measured with the HTRF-based IP-One Gq kit (Cisbio) on a microplate reader (Tecan Spark).
(§2) For in vitro activation, data is presented as mean ± SEM of at least three independent experiments conducted in technical triplicate. […] For the C. elegans NPRs, we considered the strongest response elicited by any of the peptides downstream of a particular receptor as the receptor’s maximal signal. This may or may not be the biological maximum that can be reached by the ‘true’ endogenous agonist. For the human receptors, the response to the established endogenous agonist reflected the maximal signal.

The target of another assay is T2, Y5R (Homo sapiens, UniProt Q15761).
T2 construct: expressed in transfected cells; host or cells: HEK293, transient
T2 sequence (Q15761 1-445): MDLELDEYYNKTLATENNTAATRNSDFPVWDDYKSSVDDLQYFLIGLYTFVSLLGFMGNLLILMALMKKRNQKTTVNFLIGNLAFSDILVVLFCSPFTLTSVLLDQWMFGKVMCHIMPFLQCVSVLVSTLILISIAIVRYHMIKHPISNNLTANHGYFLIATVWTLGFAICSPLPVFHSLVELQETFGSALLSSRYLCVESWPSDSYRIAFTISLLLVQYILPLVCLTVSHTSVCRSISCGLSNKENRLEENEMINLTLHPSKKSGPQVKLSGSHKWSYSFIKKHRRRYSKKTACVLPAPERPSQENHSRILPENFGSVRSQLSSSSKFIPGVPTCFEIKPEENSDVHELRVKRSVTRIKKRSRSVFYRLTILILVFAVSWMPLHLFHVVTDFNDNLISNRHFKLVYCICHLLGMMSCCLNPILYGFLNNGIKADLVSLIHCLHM
In words: IP accumulation assay, chimeric GαΔ6qi4myr, Y5R. To be noted: chimeric GαΔ6qi4myr co-transfected, transiently transfected HEK293 cells, mean of at least three independent experiments. How it is done:
as §1, §2

The target in the next assay is T3, NPFF1R (Homo sapiens, UniProt Q9GZQ6).
T3 construct: expressed in transfected cells; host or cells: HEK293, transient
In words: IP accumulation assay, chimeric GαΔ6qi4myr, NPFF1R. Particulars: chimeric GαΔ6qi4myr co-transfected, transiently transfected HEK293 cells, mean of at least three independent experiments. How it is done: as §1, §2

The target in the next assay is T4, Y1R (Homo sapiens, UniProt P25929).
T4 construct: expressed in transfected cells; host or cells: HEK293, transient
T4 sequence (P25929 1-384): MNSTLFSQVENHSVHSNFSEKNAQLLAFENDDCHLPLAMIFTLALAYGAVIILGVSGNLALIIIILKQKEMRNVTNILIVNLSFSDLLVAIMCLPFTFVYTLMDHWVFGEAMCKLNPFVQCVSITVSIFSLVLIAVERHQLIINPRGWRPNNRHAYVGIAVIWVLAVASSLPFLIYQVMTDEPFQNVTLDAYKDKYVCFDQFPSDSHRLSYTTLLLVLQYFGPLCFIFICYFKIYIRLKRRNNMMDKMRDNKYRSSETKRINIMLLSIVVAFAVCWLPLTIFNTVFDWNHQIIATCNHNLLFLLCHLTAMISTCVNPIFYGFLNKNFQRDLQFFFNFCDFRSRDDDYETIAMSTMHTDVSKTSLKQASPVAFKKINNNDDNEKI
In words: IP accumulation assay, chimeric GαΔ6qi4myr, Y1R. Particulars: chimeric GαΔ6qi4myr co-transfected, transiently transfected HEK293 cells, mean of at least three independent experiments. How it is done:
as §1, §2

In the next assay the target is T5, QRFPR (Homo sapiens, UniProt Q96P65).
T5 construct: expressed in transfected cells; host or cells: HEK293, transient
T5 sequence (Q96P65 1-431): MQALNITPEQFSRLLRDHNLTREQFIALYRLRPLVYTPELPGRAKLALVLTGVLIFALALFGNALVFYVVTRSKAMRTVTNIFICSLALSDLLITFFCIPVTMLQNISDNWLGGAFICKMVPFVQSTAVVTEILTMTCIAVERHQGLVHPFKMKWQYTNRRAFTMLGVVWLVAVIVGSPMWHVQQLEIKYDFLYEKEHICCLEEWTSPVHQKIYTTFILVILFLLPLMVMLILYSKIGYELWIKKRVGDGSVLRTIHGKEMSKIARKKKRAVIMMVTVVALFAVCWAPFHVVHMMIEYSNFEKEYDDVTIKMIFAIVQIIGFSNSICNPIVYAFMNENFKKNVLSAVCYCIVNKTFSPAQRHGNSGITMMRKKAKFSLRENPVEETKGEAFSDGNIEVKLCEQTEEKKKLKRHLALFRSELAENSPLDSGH
Kind of assay: IP accumulation assay, endogenous Gαq coupling, QRFPR. Particulars: transiently transfected HEK293 cells, mean of at least three independent experiments. How it is done:
as §1, §2

In the next assay the target is T6, Y2R (Homo sapiens, UniProt P49146).
T6 construct: expressed in transfected cells; host or cells: HEK293, transient
T6 sequence (P49146 1-381): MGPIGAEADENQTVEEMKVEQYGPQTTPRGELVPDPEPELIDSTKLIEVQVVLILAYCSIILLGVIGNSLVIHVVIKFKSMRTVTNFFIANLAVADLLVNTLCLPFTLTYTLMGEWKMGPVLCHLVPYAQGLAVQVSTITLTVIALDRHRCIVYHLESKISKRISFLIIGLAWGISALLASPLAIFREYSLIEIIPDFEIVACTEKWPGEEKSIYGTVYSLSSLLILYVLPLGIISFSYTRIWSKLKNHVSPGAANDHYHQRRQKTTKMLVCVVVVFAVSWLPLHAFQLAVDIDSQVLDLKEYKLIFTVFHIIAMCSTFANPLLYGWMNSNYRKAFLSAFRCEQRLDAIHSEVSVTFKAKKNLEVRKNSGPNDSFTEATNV
Kind of assay: IP accumulation assay, chimeric GαΔ6qi4myr, Y2R. Particulars: chimeric GαΔ6qi4myr co-transfected, transiently transfected HEK293 cells, mean of at least three independent experiments. The protocol:
as §1, §2

A further assay addresses T7, NPFF2R (Homo sapiens, UniProt Q9Y5X5).
T7 construct: expressed in transfected cells; host or cells: HEK293, transient
In words: IP accumulation assay, chimeric GαΔ6qi4myr, NPFF2R. To be noted: chimeric GαΔ6qi4myr co-transfected, transiently transfected HEK293 cells, mean of at least three independent experiments. The protocol:
as §1, §2

T1 sequence (P50391 whole entry): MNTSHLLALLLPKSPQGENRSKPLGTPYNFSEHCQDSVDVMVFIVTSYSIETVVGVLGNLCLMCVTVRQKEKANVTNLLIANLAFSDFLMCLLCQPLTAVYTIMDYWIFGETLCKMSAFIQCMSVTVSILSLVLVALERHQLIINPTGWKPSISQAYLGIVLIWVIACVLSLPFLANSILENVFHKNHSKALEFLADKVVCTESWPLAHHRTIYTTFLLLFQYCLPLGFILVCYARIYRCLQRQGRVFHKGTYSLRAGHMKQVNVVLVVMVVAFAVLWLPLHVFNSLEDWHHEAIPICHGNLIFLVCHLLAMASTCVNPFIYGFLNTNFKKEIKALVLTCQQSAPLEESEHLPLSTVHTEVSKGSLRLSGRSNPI
T7 sequence (Q9Y5X5 103-522): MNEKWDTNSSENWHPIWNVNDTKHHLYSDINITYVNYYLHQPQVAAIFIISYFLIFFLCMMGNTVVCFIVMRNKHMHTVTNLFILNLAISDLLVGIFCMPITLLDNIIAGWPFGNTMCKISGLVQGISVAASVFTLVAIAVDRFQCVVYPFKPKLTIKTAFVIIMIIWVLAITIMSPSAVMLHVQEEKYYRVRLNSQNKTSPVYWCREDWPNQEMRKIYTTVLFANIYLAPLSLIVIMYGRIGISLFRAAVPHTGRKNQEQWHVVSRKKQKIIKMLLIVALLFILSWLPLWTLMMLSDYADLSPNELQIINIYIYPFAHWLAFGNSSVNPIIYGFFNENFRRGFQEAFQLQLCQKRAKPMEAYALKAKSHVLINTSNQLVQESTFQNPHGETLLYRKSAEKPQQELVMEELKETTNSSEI
T3 sequence (Q9GZQ6 whole entry): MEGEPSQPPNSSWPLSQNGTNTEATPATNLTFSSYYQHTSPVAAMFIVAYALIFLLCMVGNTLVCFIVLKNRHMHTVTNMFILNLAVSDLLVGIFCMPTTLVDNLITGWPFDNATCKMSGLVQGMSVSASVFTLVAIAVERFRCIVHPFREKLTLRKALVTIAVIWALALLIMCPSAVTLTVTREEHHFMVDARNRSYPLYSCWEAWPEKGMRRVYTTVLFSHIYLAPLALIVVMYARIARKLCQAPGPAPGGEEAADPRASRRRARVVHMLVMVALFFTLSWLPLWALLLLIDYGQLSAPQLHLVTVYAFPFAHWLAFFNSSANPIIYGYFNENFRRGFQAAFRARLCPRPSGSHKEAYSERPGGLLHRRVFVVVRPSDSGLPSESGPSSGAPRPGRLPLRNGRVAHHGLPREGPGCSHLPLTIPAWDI

As for PrRP31 [reference compound], the “IP accumulation, x-fold of basal (mean), Y4R” value on Y4R (0.1 µM peptide) is 0.84 x-fold of basal; at Y4R (10 µM peptide), 1.10 x-fold of basal. The results for the “IP accumulation, x-fold of basal (mean), Y5R” value at Y5R (0.1 µM peptide) and on Y5R (10 µM peptide) were 0.70 x-fold of basal and 9.64 x-fold of basal, respectively. The “IP accumulation, x-fold of basal (mean), NPFF1R” value was 0.87 x-fold of basal at NPFF1R (0.1 µM peptide) and 2.26 x-fold of basal on NPFF1R (10 µM peptide). Also, the “IP accumulation, x-fold of basal (mean), Y1R” value at Y1R (0.1 µM peptide) was 0.87 x-fold of basal; at Y1R (10 µM peptide) it was 1.86 x-fold of basal. The “IP accumulation, x-fold of basal (mean), QRFPR#” value on QRFPR (0.1 µM peptide) is given as 0.58 x-fold of basal; at QRFPR (10 µM peptide), 0.59 x-fold of basal. In addition, the “IP accumulation, x-fold of basal (mean), Y2R” value was 0.76 x-fold of basal at Y2R (0.1 µM peptide) and 5.57 x-fold of basal on Y2R (10 µM peptide). Besides, the results for the “IP accumulation, x-fold of basal (mean), NPFF2R” value at NPFF2R (0.1 µM peptide) and at NPFF2R (10 µM peptide) were 1.83 x-fold of basal and 2.28 x-fold of basal, respectively.
